What was measured:
[1] = Metabolic stability in human liver microsomes; type: in vitro ADME; details: NADPH, 37 °C
Experimental: To evaluate the potential for advancing this compound to in vivo studies, the in vitro metabolic stability of this compound was determined in human liver microsomes. […] The flexible linker could then be one potential reason for overall metabolic instability. With this knowledge in hand, further optimization of the lead compound would be necessary before beginning in vivo studies. One potential approach is to introduce more rigid linker systems, thereby reducing molecular flexibility to enhance the metabolic stability while continuing to improve potency.
Materials for Microsomal Stability: Reagent-grade KH2PO4, K2HPO4, acetonitrile, methanol, and formic acid (LC-MS grade) were purchased from Fisher Scientific. Phenacetin (≥98% purity) and verapamil (≥98% purity) were obtained from Sigma-Aldrich. Reduced nicotinamide adenine dinucleotide phosphate (NADPH) and human liver microsomes (Lot No # 1210270) were obtained from MP Biomedicals and BioIVT, respectively. Ultrapure water was used for analysis.
Metabolic Stability: Metabolic stability was assessed using male human liver microsomes. ZW30441 was incubated at a concentration of 1 µM with 1 mg/mL of microsomal protein in 50 mM phosphate buffer (pH 7.4). […] Following protein precipitation, the samples were filtered using a Solvinert 96-well plate, centrifuged at 2000 rpm, and analyzed by LC–MS/MS. […]

METTL3-METTL14 complex = target: T1, METTL3-METTL14 complex (Homo sapiens, UniProt Q86U44); experiment: Washout experiment in MV4-11 cells, Western blot; type: cell-based; details: 1 µM for 20 h, then drug withdrawal 0 to 24 h
T1 construct: endogenous in cells; host or cells: MV4-11 human AML cells, ATCC
Experimental: To further characterize this compound, MV4-11 AML cells were treated with ZW30441 across a range of concentrations for 24 h.
Fig. 3 ZW30441 induced degradation of METTL3 and METTL14 in a dose- and time-dependent manner. […] METTL3 and METTL14 protein levels were normalized against ACTIN and plotted for DC50 and Dmax determination (right). B The levels of METTL3 and METTL14 protein in MV4-11 cells were analyzed by Western blots after the treatment of 1 µM of ZW30441 for various durations. C METTL3 and METTL14 protein levels were analyzed by Western blots in MV4-11 cells after treatment with 1 µM of ZW30441 for 20 h followed by drug withdrawal and cultured without ZW30441 for 0 to 24 h, as indicated TEXT PRINTED IN THE PICTURE: (A) ZW30441: METTL3 levels: DC50=0.44 uM; METTL3 levels: Dmax= 68.7%; METTL14 levels: DC50=0.13 uM; METTL14 levels: Dmax= 74.1% DOUBTS OF THE COPYIST ABOUT THIS PICTURE: ZW30441, panel A, axis title of the right plot: last letter unclear, 'METTL14 levels' or 'METTL14 levela'
Western Blot Analysis: Following treatment, total cellular proteins were extracted using RIPA buffer (Auragene, Changsha, China). Equal amounts of protein were separated by 12% SDS-PAGE and transferred onto PVDF membranes (Thermo Fisher, USA, LC2002). […] Band intensities were quantified using ImageJ software and normalized to ACTIN as a loading control. Data was analyzed using GraphPad Prism 9. […]

T1 sequence (Q86U44 2-580 limits assumed): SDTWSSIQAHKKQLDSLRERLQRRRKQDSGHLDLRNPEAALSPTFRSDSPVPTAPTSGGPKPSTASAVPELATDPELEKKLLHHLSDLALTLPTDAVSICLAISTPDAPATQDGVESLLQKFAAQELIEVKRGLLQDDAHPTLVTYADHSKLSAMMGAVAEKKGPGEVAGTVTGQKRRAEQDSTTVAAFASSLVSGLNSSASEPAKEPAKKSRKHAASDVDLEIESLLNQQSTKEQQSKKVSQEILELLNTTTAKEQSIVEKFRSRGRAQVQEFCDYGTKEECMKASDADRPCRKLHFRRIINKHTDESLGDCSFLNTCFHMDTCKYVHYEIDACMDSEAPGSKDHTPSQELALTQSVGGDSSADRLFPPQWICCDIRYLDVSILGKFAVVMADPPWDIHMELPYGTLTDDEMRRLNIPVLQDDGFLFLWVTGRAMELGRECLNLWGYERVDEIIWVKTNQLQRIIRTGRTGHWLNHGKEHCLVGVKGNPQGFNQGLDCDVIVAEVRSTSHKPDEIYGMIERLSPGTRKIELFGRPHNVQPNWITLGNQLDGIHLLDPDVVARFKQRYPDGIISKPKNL
T1 sequence (Q9HCE5 whole entry partner): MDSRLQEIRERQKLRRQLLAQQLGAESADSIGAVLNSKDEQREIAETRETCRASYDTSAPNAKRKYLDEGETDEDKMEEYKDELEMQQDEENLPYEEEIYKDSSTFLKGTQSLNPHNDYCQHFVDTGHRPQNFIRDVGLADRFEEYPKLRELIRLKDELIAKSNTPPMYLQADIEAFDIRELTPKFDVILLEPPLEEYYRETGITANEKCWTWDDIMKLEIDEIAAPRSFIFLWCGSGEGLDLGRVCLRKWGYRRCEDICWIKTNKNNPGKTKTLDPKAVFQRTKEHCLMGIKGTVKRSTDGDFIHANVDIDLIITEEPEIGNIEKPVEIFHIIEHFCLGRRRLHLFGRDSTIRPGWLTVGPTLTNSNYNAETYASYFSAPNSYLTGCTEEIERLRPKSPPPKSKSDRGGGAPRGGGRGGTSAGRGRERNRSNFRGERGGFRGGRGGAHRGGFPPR

intrinsic clearance (Clint) in human liver microsomes ([1]; 1 µM, 1 mg/mL microsomal protein): 152.1 ± 26.1 uL/min/mg of protein | half-life at 1 µM ([1]; male, human, liver microsomes, pH 7.4, 1 mg/mL microsomal protein, read-out: half-life (T1/2) in human liver microsomes): 4.6 ± 0.7 min | duration of degradation after removal of compound (washout) (METTL3-METTL14 complex): around 24 h
SMILES: CC1(C)CCN(Cc2cc(F)c(N3CC(=O)NC4(CCN(c5cc(NCCCCCCCCCC(=O)N6CCN(c7ccc8c(c7)CN(C7CCC(=O)NC7=O)C8=O)CC6)ncn5)CC4)C3)cc2F)CC1 (stereo not drawn) [Compound 4j, 3-(5-(4-(10-((6-(4-(4-((4,4-dimethylpiperidin-1-yl)methyl)-2,5-difluorophenyl)-2-oxo-1,4,9-triazaspiro[5.5]undecan-9-yl)pyrimidin-4-yl)amino)decanoyl)piperazin-1-yl)-1-oxoisoindolin-2-yl)piperidine-2,6-dione]

— publication PMC12615518, “Discovery of CRBN-recruiting PROTAC degraders of the METTL3-METTL14 complex” (Medicinal Chemistry Research, 2025)
